One series relates to Calf thymus DNA. As to the kind of experiment: DNA intercalation assay (DNA/methyl green colorimetric assay). In kind it is binding. The conditions noted are these: three independent experiments. Here is the method:
(§1) The data represented the mean of three independent experiments in triplicate and were expressed as means ± SD. […]
4.2.2. DNA intercalation assay (DNA/methyl green colorimetric assay)
Affinity of some compounds for DNA-binding was examined in vitro using DNA/methyl green assay using doxorubicin as a positive control. In this test, a mixture of methyl green (20 mg) and Calf thymus DNA (10 mg) (Sigma– Aldrich) were suspended in 0.05 M TrisHCl buffer (100 mL, pH 7.5) containing 7.5 mM MgSO4. This mixture was stirred continuously for 24 h at 37 °C. Then, ethanolic solution of the test compounds was pitted into the wells of a 96-well microtiter tray at a concentration of 10, 100 and 1000 µM. The excess solvent was removed from each well under vacuum, with subsequent addition of 200 µL of the DNA/methyl green solution. The test samples were incubated for 24 h in dark at ambient temperature. After that, absorbance of each sample was determined at 642.5–645 nm. In this test, the methyl green dye reversibly binds to DNA to form persistent colored complex of DNA/methyl green. This color still stables at neutral pH. When the DNA intercalators were added, the methyl green was displaced from DNA with addition of H2O molecule to the dye resulting in formation of the colorless carbinol leading to a decrease in spectrophotometric absorbance. ΔA value (the difference between DNA/methyl green complex and free cabinol) provides the simplest means for detecting the DNA-binding affinity and relative binding strength. IC50′s were determined by linear regression of data plotted on a semi -log scale and the data were compared with doxorubicin as standard DNA intercalator . […]

Series [1] has as its system HCT-116 cells (colorectal carcinoma). As to the kind of experiment: MTT anti-proliferative assay, HCT-116. In kind it is cell-based, human. The conditions noted are these: for IC50: mean ± SD of three separate experiments, read-out: In vitro Cytotoxicity IC50 HCT-116. The method, then:
(§2) Anti-proliferative activities of the target compounds were assessed via the standard MTT method[38–40] against three cancer cell lines, namely, hepatocellular carcinoma (HepG-2), colorectal carcinoma (HCT-116), and human breast adenocarcinoma (MCF-7). Doxorubicin was used in this test as a positive control.
(§3) Anti-proliferative activity of the synthesised compounds was estimated using the MTT assay protocol[8]^,[38–40] as shown in Supplementary data.
(§4) 4.2.1. In vitro anti-proliferative activity against MCF-7, HepG-2 and HCT-116 The cells were cultured in RPMI-1640 medium supplemented with 10% fetal bovine serum (FBS), penicillin (100 unit /mL) and streptomycin sulphate (100µg/mL) at 37 °C in a 5% CO2 incubator.
(§5) Then, cells were dropped in 96-well plates at a density of 3-8 × 10^3 cells/well and incubated for two days in a 5% CO2 incubator at 37 °C. Then, the cells were treated with the synthesized compounds and the cell cultures were continued incubated for 24 h. However, Different concentrations of the compound under test (0.0, 5.0, 12.5, 25.0 and 50 mg/ml) were added to the cell monolayer. Then, (3-[4,5-dimethylthiazol-2-yl]- 2,5-diphenyltetrazolium bromide) MTT solution (20 µl, 5mg/mL) was added to each well and incubated for additional 4 h. The formed purple crystals of MTT-formazan were dissolved in 100 µl DMSO each well; the absorbance of each well was measured at 570 nm using a plate reader (EXL 800, USA). All of the compounds were tested three times. The relative cell viability in percentage was calculated. The results for IC50 values of the active compounds are […]
as §1
(§6) of the cells could survive. […]

For series [2], the system named is MCF-7 cells (human breast adenocarcinoma). In words: MTT anti-proliferative assay, MCF-7. In kind it is cell-based. The conditions noted are these: for IC50: mean ± SD of three separate experiments, read-out: In vitro Cytotoxicity IC50 MCF-7. The method, then:
as §2, §3, §4, §5, §1, §6

For series [3], the system named is HepG-2 cells (hepatocellular carcinoma). In words: MTT anti-proliferative assay, HepG-2. In kind it is cell-based, human. The conditions noted are these: for IC50: mean ± SD of three separate experiments, read-out: In vitro Cytotoxicity IC50 HepG-2. The method, then: Anti-proliferative activities of the target compounds were assessed via the standard MTT method[38–40] against three cancer cell lines, namely, hepatocellular carcinoma (HepG-2), colorectal carcinoma (HCT-116), and human breast adenocarcinoma (MCF-7).
as §3, §4
Then, cells were dropped in 96-well plates at a density of 3-8 × 10^3 cells/well and incubated for two days in a 5% CO2 incubator at 37 °C. Then, the cells were treated with the synthesized compounds and the cell cultures were continued incubated for 24 h. However, Different concentrations of the compound under test (0.0, 5.0, 12.5, 25.0 and 50 mg/ml) were added to the cell monolayer. Then, (3-[4,5-dimethylthiazol-2-yl]- 2,5-diphenyltetrazolium bromide) MTT solution (20 µl, 5mg/mL) was added to each well and incubated for additional 4 h. The formed purple crystals of MTT-formazan were dissolved in 100 µl DMSO each well; the absorbance of each well was measured at 570 nm using a plate reader (EXL 800, USA). All of the compounds were tested three times. The relative cell viability in percentage was calculated.
as §1

The target of a further series is T1, human Topo II (Homo sapiens, UniProt P11388).
T1 construct: purchased TopoGEN, Inc., Columbus
T1 sequence (P11388 whole entry): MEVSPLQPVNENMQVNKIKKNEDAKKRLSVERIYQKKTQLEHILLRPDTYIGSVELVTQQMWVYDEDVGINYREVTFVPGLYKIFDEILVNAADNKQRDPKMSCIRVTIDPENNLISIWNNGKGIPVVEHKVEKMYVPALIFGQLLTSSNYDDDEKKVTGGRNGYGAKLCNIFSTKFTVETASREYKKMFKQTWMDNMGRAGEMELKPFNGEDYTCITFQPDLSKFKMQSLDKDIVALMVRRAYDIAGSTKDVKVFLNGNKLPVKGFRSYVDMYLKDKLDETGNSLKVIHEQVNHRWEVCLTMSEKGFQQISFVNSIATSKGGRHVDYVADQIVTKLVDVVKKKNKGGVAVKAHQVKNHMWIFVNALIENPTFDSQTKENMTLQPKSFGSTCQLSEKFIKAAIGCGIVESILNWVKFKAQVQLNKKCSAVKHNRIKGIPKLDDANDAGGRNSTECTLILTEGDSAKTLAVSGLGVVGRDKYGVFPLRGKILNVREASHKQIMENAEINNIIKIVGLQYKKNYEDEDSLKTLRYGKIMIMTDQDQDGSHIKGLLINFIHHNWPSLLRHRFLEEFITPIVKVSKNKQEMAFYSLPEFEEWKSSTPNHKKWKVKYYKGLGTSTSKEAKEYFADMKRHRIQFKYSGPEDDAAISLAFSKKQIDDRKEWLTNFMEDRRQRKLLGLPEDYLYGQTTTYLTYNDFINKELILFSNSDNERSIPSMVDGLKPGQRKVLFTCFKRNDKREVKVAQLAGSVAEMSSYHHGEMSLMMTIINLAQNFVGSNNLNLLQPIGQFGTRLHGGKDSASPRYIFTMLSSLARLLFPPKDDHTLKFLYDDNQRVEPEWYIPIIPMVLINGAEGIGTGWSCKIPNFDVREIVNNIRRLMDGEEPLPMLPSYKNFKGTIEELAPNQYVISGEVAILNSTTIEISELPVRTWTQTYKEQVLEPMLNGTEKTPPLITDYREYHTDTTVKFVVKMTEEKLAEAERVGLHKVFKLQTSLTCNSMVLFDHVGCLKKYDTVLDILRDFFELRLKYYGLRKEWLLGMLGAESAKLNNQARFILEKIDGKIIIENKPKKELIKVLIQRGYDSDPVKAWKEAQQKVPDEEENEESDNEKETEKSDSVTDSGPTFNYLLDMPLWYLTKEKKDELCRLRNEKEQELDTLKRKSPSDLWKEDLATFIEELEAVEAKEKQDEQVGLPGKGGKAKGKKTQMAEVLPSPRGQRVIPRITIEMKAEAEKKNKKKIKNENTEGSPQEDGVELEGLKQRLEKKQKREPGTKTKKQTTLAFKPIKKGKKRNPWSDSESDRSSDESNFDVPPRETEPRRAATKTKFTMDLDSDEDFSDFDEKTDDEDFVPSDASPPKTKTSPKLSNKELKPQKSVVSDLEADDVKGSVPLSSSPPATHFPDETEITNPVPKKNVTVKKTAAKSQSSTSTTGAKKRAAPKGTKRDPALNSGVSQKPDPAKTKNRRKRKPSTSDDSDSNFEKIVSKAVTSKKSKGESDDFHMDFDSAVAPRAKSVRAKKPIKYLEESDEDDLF
In words: Topoisomerase II inhibitory activity (TopoGEN drug screening kit). It counts as biochemical. The conditions noted are these: three independent experiments. The method, then:
The activity of topoisomerase II was determined according to the reported procedure described by Patra et al.[42]. […]
4.2.3. Measurement of topoisomerase II activity
Compounds (8a, 8b, 9a, 9c, 9d, 12a, and 12b) were further evaluated to assess their Topo II inhibitory activities. In this test, Topo II drug screening kit (TopoGEN, Inc., Columbus) was utilized to determine the Topo II activity. […] A typical enzyme […]
reaction contained a mixture of human Topo II (2 µL), substrate super coiled pHot1 DNA (0.25 µg), 50 µg/mL test compound (2 µL), and assay buffer (4 µL). The reaction started upon incubation of the mixture in 37 °C for 30 min. The reaction was terminated by addition of 10% sodium dodecylsulphate (2 µL) and proteinase K (50 µg/mL) at 37 °C for 15 min. followed by incubation for 15 min at 37 °C.
Then, the DNA was run on 1% agarose gel in BioRad gel electrophoresis system for 1–2 h followed by staining with GelRedTM stain for 2 h and destained for 15 min with TAE buffer. The gel was imaged Via BioRad’s Gel DocTMEZ system. Both supercoiled and linear strands DNA were incorporated in the gel as markers for DNA-Topo II intercalators. The results of IC50 values were calculated using the GraphPad Prism version 5.0. Each reaction was performed in duplicate, and at least three independent determinations of each IC50 were made.

The mark [4] stands for this setting: ratio of IC50 values vs doxorubicin.

Each structure is given as a SMILES string. Where two headings read alike, the source gives them in different places.

The record followed here is paper PMC8667898, “Topo II inhibition and DNA intercalation by new phthalazine-based derivatives as potent anticancer agents: design, synthesis, anti-proliferative, docking, and in vivo studies” (Journal of Enzyme Inhibition and Medicinal Chemistry, 2021).

On to `CCCc1nnc2c3ccccc3c3nnc(SCC(N)=O)n3n12` [Compound 15, 2-[(6-Propylbis([1,2, 4]triazolo)[3,4-a:4',3'-c]phthalazin-3-yl)thio]acetamide], for which the IC50 with Calf thymus DNA was 71.2 ± 3.11 µM; in series [1] (Homo sapiens, HCT-116, MTT), 53.5 ± 1.55 µM; in series [2] (Homo sapiens, MCF7, MTT) it was 26.2 ± 0.77 µM; in series [3] (Homo sapiens, HepG2, MTT), 38.6 ± 1 µM.

As for `CCCc1nnc2c3ccccc3c3nnc(SCC(=O)Nc4ccc([N+](=O)[O-])cc4)n3n12` [Compound 14b, N-(4-Nitrophenyl)-2-[(6-propylbis([1,2, 4]triazolo)[3,4-a:4',3'-c]phthalazin-3-yl)thio]acetamide], the IC50 against human Topo II is 13.7 ± 1.02 µM; in the series with Calf thymus DNA, 34.4 ± 2.8 µM; in series [1] (Homo sapiens, HCT-116, MTT), 10.9 to 14.9 µM; in series [1] (MTT), 12.6 ± 0.45 µM; in series [2] (Homo sapiens, MCF7, MTT), 10.9 to 14.9 µM; in series [2] (MTT) it was 14.9 ± 0.55 µM. Besides, the IC50 in series [3] (Homo sapiens, HepG2, MTT) is 10.9 to 14.9 µM; in series [3] (MTT) it was 13.4 ± 0.4 µM.

For `CCCc1nnc2c3ccccc3c(NNC(=S)NC3CCCCC3)nn12` [Compound 8b, N-Cyclohexyl-2–(3-propyl-[1,2, 4]triazolo[3,4-a]phthalazin-6-yl)hydrazine-1-carbothioamide], the IC50 against human Topo II is 8.91 ± 0.77 µM; in the series with Calf thymus DNA it was 34.6 ± 1.1 µM; in series [1] (Homo sapiens, HCT-116, MTT) it was 10.9 to 14.9 µM; in series [1] (MTT), 13.8 ± 0.44 µM; in series [2] (Homo sapiens, MCF7, MTT), 10.9 to 14.9 µM; in series [2] (MTT), 12.5 ± 0.32 µM. In addition, the IC50 in series [3] (Homo sapiens, HepG2, MTT) is 10.9 to 14.9 µM; in series [3] (MTT), 10.9 ± 0.34 µM.

As for `CCCc1nnc2c3ccccc3c(NNC(=S)NCC)nn12` [Compound 8a, N-Ethyl-2–(3-propyl-[1,2, 4]triazolo[3,4-a]phthalazin-6-yl)hydrazine-1-carbothioamide], the IC50 against human Topo II amounted to 22.3 ± 2 µM; in the series with Calf thymus DNA, 29.6 ± 1.41 µM; in series [1] (Homo sapiens, HCT-116, MTT), 25 ± 0.7 µM; in series [2] (Homo sapiens, MCF7, MTT) it was 16.5 ± 0.43 µM; in series [3] (Homo sapiens, HepG2, MTT), 28.9 ± 0.67 µM.

In the case of `CCCc1nnc2c3ccccc3c(NN=Cc3ccc(O)cc3)nn12` [Compound 9c, 4-[(2–(3-Propyl-[1,2, 4]triazolo[3,4-a]phthalazin-6-yl)hydrazineylidene)methyl]-phenol], the IC50 on human Topo II is 21.4 ± 1.9 µM; in series [1] (Homo sapiens, HCT-116, MTT) it was 78.5 ± 2.04 µM; in series [2] (Homo sapiens, MCF7, MTT), 57.8 ± 1.56 µM; in series [3] (Homo sapiens, HepG2, MTT), 56.3 ± 1.73 µM.

Regarding `CCCc1nnc2c3ccccc3c(NN=Cc3ccc(F)cc3)nn12` [Compound 9b, 6-[2–(4-Fluorobenzylidene)hydrazineyl]-3-propyl-[1,2, 4]triazolo[3,4-a]phthalazine], the half-inhibitory concentration (IC50) with Calf thymus DNA amounted to 49.9 ± 2.53 µM; in series [1] (Homo sapiens, HCT-116, MTT), 61.7 ± 1.89 µM; in series [2] (Homo sapiens, MCF7, MTT) it was 36 ± 0.98 µM; in series [3] (Homo sapiens, HepG2, MTT), 63.9 ± 1.02 µM.

Take `CCCc1nnc2c3ccccc3c(NNC(=O)Nc3ccccc3)nn12` [Compound 7b, N-Phenyl-2–(3-propyl-[1,2, 4]triazolo[3,4-a]phthalazin-6-yl)hydrazine-1-carboxamide]: the IC50 with Calf thymus DNA was found to be 36.6 ± 1.82 µM; in series [1] (Homo sapiens, HCT-116, MTT), 48.6 ± 1.6 µM; in series [2] (Homo sapiens, MCF7, MTT) it was 50.7 ± 1.55 µM; in series [3] (Homo sapiens, HepG2, MTT), 45 ± 1.1 µM.

Consider `CCCc1nnc2c3ccccc3c3nnc(SCC(=O)Nc4ccc(C(=O)O)cc4)n3n12` [Compound 14a, 4-[2-((6-Propylbis([1,2, 4]triazolo)[3,4-a:4',3'-c]phthalazin-3-yl)thio)acetamido]benzoic acid], for which the IC50 against human Topo II was found to be 7.64 ± 0.66 µM; with Calf thymus DNA it was 28.7 ± 1.71 µM; in series [1] (Homo sapiens, HCT-116, MTT), 4.35 ± 0.19 µM; in series [2] (Homo sapiens, MCF7, MTT), 4.36 ± 0.2 µM; in series [3] (Homo sapiens, HepG2, MTT) it was 5.65 ± 0.25 µM. Moreover, the “times more active than doxorubicin, HCT-116” value in series [1] (setting [4]) was about 2.28 times. Also, the “times more active than doxorubicin, MCF-7” value in series [2] (setting [4]) was about 1.75 times. Moreover, in series [3] (setting [4]), the “times more active than doxorubicin, HepG2” value was “about 1.46 times”.

In the case of `CCCc1nnc2c3ccccc3c3nnc(SCC(=O)Nc4ccc(S(N)(=O)=O)cc4)n3n12` [Compound 14c, 2-[(6-Propylbis([1,2, 4]triazolo)[3,4-a:4',3'-c]phthalazin-3-yl)thio]-N-(4-sulfamoyl-phenyl)acetamide], the IC50 in the series with Calf thymus DNA came out at 46.3 ± 2.3 µM; in series [1] (Homo sapiens, HCT-116, MTT), 30.99 ± 0.11 µM; in series [2] (Homo sapiens, MCF7, MTT), 20.6 ± 0.88 µM; in series [3] (Homo sapiens, HepG2, MTT) it was 24.8 ± 0.88 µM.

On to `CCCc1nnc2c3ccccc3c(NNC(=O)NC3CCCCC3)nn12` [Compound 7a, N-Cyclohexyl-2–(3-propyl-[1,2, 4]triazolo[3,4-a]phthalazin-6-yl)hydrazine-1-carboxamide], for which the IC50 in the series on Calf thymus DNA came out at 37.1 ± 2 µM; in series [1] (Homo sapiens, HCT-116, MTT) it was 23.8 ± 0.81 µM; in series [2] (Homo sapiens, MCF7, MTT), 19.4 ± 0.62 µM; in series [3] (Homo sapiens, HepG2, MTT), 24.9 ± 0.8 µM.

On to `CCCc1nnc2c3ccccc3c(NN=Cc3ccc(Cl)cc3)nn12` [Compound 9a, 6-[2–(4-Chlorobenzylidene)hydrazineyl]-3-propyl-[1,2, 4]triazolo[3,4-a]phthalazine], for which the concentration for half-maximal inhibition (IC50) on human Topo II turned out to be 13.7 µM; in the series on Calf thymus DNA, 43.8 ± 2.22 µM; in series [1] (Homo sapiens, HCT-116, MTT), 36.3 ± 1.1 µM; in series [2] (Homo sapiens, MCF7, MTT), 45.5 ± 1.22 µM; in series [3] (Homo sapiens, HepG2, MTT) it was 25.2 ± 0.7 µM.
